{
  "source": "patent US20060069032A1",
  "about": "(L'OREAL, priority 2003, published 2006)",
  "key": {"[1]": {"system": "Calmodulin-like skin protein (CLSP) messenger", "experiment": "Calmodulin-like skin protein (CLSP) messenger expression by quantitative RT-PCR in reconstructed epidermis SkinEthic", "type": "cell-based, human", "conditions": "0.01 μM, 24 hours", "description": "(§1) The study was carried out on a model of reconstructed epidermis SkinEthic. Upon receiving, the epidermes were precultured for 24 hours in SkinEthic medium. The culture medium was then replaced with medium containing the test product (two epidermes per concentration tested), and then the epidermes were cultured for 24 hours at 37° C. and 5% CO2. A batch of 2 epidermes was not treated. The culture supernatants were then removed and the epidermes were rinsed with a PBS solution, cut and deposited in sterile RNA-free tubes in the presence of Tri-Reagent (Sigma T9424) and then immediately frozen at −80° C.\n(§2) The pairs of primers which were used in this study allow the amplification of the following specific fragments:\n(§3) The reverse transcription was carried out in the following manner: • extraction of the total RNA of each epidermis with the aid of Tri-Reagent according to the protocol recommended by the supplier, and then a new extraction with chloroform and precipitation with isopropanol. • removal of the traces of potentially contaminating DNA by treating with the DNA-free system (Ambion) • carrying out of the reaction of reverse transcription of the mRNA in the presence of the oligo(dT) primer and of the enzyme Superscript II (Gibco) • quantification, by fluorescence, of the synthesized cDNA and adjustment of the concentrations of 50 ng/ml.\n(§4) The PCR reactions (polymerase chain reactions) were carried out by quantitative PCR with the “Light cycler” system (Roche Molecular Systems Inc.) according to the procedures recommended by the supplier.\n(§5) The PCR conditions were the following: activation of 10 min at 95° C., PCR reactions (10 sec at 95° C., 5 sec at 64° C. and 35 sec at 72° C.) 40 cycles, fusion of 5 sec at 95° C. and then 5 sec at 60° C.\n(§6) The incorporation of fluorescence into the amplified DNA was measured continuously during the PCR cycles. This system makes it possible to obtain fluorescence measurement curves as a function of the PCR cycles and to thereby evaluate a relative expression value for each marker. The RE (relative expression) value is expressed in arbitrary units according to the following formula: (1/2^number of cycles)×10^6.\n(§7) The results were expressed relative to the quantity of actin messenger (reference gene) and are represented, per marker, in the following tables."}, "epidermal keratinocyte": {"system": "epidermal keratinocyte", "conditions": "Nissen J B et al, Exp. Dermatol. 1997; cited from earlier work"}, "[2]": {"system": "Transglutaminase 1 (TGK) messenger", "experiment": "Transglutaminase I (TGK) messenger expression by quantitative RT-PCR in reconstructed epidermis SkinEthic", "type": "cell-based, human", "description": "as §1, §2, §3, §4, §5, §6, §7"}, "[3]": {"system": "Loricrin (LORI) messenger", "experiment": "Loricrin messenger expression by quantitative RT-PCR in reconstructed epidermis SkinEthic", "type": "cell-based, human", "description": "as §1, §2, §3, §4, §5, §6, §7"}, "[4]": {"conditions": "0.01 μM, 24 hours, control = 100"}},
  "data": [
    {"substance": "β-Endorphin [Beta-endorphin]", "values": [
      {"measurement": "CLSP/actin", "setting": "[1]", "value": 0.0961},
      {"measurement": "RE*CLSP (UA)", "setting": "[1]", "value": 0.1032, "unit": "UA"},
      {"measurement": "RE*actin (UA)", "setting": "[1]; reference gene, CLSP table", "value": 1.07, "unit": "UA"},
      {"measurement": "CLSP/actin % control", "setting": "[1]; control = 100", "value": 174, "unit": "%"},
      {"measurement": "effect on epidermal proliferation and differentiation", "setting": "epidermal keratinocyte", "value": "no effect"},
      {"measurement": "RE*TGK (UA)", "setting": "[2]; 0.01 μM, 24 hours", "value": 0.165, "unit": "UA"},
      {"measurement": "RE*actin (UA)", "setting": "[2]; 0.01 μM, 24 hours, reference gene, TGK table", "value": 1.11, "unit": "UA"},
      {"measurement": "TGK/actin % control", "setting": "[2]; [4]", "value": 176, "unit": "%"},
      {"measurement": "expression of the TGK messenger (in words)", "setting": "[2]; at physiological concentration", "value": "an effect of the same type, although slightly less pronounced"},
      {"measurement": "LORI/actin", "setting": "[3]; 0.01 μM, 24 hours", "value": 10.2},
      {"measurement": "RE*LORI (UA)", "setting": "[3]; 0.01 μM, 24 hours", "value": 11.24, "unit": "UA"},
      {"measurement": "RE*actin (UA)", "setting": "[3]; 0.01 μM, 24 hours, reference gene, loricrin table", "value": 1.11, "unit": "UA"},
      {"measurement": "LORI/actin % control", "setting": "[3]; [4]", "value": 179, "unit": "%"},
      {"measurement": "expression of the loricrin marker (in words)", "setting": "[3]; at physiological concentration", "value": "stimulate the expression"}
    ]}
  ]
}
